The text below walks through data of patent US20240301023A1 (priority 2020, published 2024).

The target in series [1] is Kappa opioid receptor (KOR) (Homo sapiens, UniProt P41145). Kind of series: cell-based. It counts as cell-based.
For the next series, the target named is Mu opioid receptor (MOR) (Homo sapiens, UniProt P35372). Kind of series: cell-based. It counts as cell-based.
Series [2] addresses T1, bovine pancreatic trypsin (Bos taurus, UniProt P00760).
T1 construct: from tissue; host or cells: bovine pancreas
T1 sequence (P00760 24-246): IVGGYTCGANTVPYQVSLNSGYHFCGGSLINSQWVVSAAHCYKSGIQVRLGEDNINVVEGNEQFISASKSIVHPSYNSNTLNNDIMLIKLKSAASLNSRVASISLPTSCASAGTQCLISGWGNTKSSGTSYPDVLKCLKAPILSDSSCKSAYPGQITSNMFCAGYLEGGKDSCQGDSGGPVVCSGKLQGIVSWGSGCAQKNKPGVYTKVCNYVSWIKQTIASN
Put plainly: Stability in bovine trypsin. As to conditions: bovine pancreatic trypsin 2.5 μg/mL, NH4HCO3 buffer pH 8-8.5, 37° C., 100 μM peptide; for half-life at 100 µM: bovine pancreatic trypsin solution; for half-life: isolated enzyme trypsin. It counts as in vitro ADME. The procedure:
The stability of the peptides was analysed in typsin, plasma and water. Stability of linear peptides is generally low due to rapid degradation by endogenous peptidases and proteases. While stability in bodily fluids is important, absolute stability may not be prudent or desirable due to potential build-up in vivo leading to adverse side effects, and/or hazards to the environment and recirculation of exceptionally stable compounds in waterways. Thus, compounds that are extremely stable in either plasma or typsin are not generally considered “drug-like”.
Stability in bovine trypsin was analysed for SEQ ID Nos. 2 to 7 and 11 to 17. Peptides were added to trypsin solution (bovine pancreatic trypsin 2.5 μg/mL in NH4HCO3 buffer, pH approximately 8-8.5, 37° C.) in a water bath with final concentrations of 100 μM peptide. A 50 μL sample was taken immediately and precipitated in 150 μL of cold acetonitrile (9:1 acetonitrile:water) This sample became the baseline, or t=0 min sample. The trypsin peptide mixture was immediately returned to the water bath and subsequent 50 μL samples were taken at 5, 10, 15, 30, 60 and 120 min. At each time point, the 50 μL sample was collected and immediately added to cold acetonitrile (ACN). Each sample was vortexed for 30 sec and then centrifuged at room temperature (RT) (13K rpm, 5 min). 150 μL of the supernatant was taken and directly place in a glass HPLC vial for LCMS analysis.

A further series is described as follows: Stability in rat plasma. The class given is in vitro ADME. The following applies: 37° C., 100 μM peptide; for half-life at 100 µM: both sexes, Wistar. As for the experimental part:
Stability in plasma was assessed in rat plasma. Plasma was collected in-house from adult mixed-gender Wistar rats, prepared using 2% EDTA as per standard practice. Peptides were added to the rat plasma samples at 37° C. in a water bath with final concentrations of 100 μM (1:9 peptide in water:plasma). The assay was then carried out in the same manner as the assay in bovine trypsin.

Series [3] addresses Delta opioid receptor (DOR) (Homo sapiens, UniProt P41143). Kind of series: cell-based. The class given is cell-based.
The mark [4] stands for this setting: read-out: Activity (EC50, nM) MOR.
[5] abbreviates: read-out: Activity (EC50, nM) DOR.

Where two headings read alike, the source gives them in different places. Square brackets hold non-standard residues; d marks the D form. Ends that are not written are not given here. Peptide text beside a SMILES is read from it. Phe(4-NO2) = N[C@@H](Cc1ccc([N+](=O)[O-])cc1)C(=O)O; Phe(4-Cl) = N[C@@H](Cc1ccc(Cl)cc1)C(=O)O; Phe(4-F) = N[C@@H](Cc1ccc(F)cc1)C(=O)O; NMeR = CN[C@@H](CCCNC(=N)N)C(=O)O; Aoc = NCCCCCCCC(=O)O; Sar = CNCC(=O)O

Delta opioid receptor (DOR), sequence (P41143 whole entry): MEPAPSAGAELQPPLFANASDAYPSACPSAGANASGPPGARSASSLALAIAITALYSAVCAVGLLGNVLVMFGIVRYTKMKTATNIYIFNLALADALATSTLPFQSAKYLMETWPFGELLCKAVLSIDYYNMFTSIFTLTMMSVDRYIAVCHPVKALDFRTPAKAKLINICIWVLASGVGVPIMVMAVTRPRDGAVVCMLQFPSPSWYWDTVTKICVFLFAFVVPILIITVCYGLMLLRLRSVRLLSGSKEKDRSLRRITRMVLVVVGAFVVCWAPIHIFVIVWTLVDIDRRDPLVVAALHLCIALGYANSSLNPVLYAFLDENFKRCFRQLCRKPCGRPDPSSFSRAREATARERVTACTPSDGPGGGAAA
Kappa opioid receptor (KOR), sequence (P41145 whole entry): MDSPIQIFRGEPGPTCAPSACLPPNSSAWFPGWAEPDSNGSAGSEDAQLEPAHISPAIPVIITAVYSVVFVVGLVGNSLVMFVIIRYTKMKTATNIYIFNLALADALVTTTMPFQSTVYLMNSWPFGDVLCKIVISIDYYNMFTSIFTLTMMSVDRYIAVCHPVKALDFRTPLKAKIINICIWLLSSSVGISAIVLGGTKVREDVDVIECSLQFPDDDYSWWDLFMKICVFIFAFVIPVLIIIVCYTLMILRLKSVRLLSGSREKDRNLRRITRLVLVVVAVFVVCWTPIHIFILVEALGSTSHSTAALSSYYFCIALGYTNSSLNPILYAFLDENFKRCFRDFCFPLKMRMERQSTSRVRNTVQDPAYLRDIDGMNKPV
Mu opioid receptor (MOR), sequence (P35372 whole entry): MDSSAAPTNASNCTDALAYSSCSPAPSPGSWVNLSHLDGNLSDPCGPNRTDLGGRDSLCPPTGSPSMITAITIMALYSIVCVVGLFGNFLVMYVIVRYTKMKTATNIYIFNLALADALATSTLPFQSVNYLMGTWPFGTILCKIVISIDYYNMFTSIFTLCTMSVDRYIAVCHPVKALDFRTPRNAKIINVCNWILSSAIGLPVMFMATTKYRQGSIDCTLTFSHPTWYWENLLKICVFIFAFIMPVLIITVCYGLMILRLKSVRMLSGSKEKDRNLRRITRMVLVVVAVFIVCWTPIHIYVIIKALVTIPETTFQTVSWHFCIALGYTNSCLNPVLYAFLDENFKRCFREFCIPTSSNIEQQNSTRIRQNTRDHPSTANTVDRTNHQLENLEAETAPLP

In the case of `CC(C)C[C@H](NC(=O)[C@H](Cc1ccc(F)cc1)NC(=O)CN(C)C(=O)[C@@H](N)Cc1ccc(O)cc1)C(=O)N[C@@H](CCCNC(=N)N)C(=O)N[C@H](CCCNC(=N)N)C(N)=O` [SEQ ID NO. 12, NH2-Tyr-Sar-(4-F)Phe-Leu-Arg-DArg-NH2] (H-Y[Sar][Phe(4-F)]LR[dR]-NH2), the EC50 (commonly the concentration needed to bring the measured effect to its halfway point) worked out at 6.7 nM in series [1] (read-out: Activity (EC50, nM) KOR) and 3450 nM on Mu opioid receptor (MOR) (setting [4]). In addition, the half-life (usually the time in which the quantity being followed falls by half) at 100 µM in series [2] came to 0.228 h; in “Stability in rat plasma” it was 0.532 h.
Turning to `CC(C)C[C@H](NC(=O)[C@H](Cc1ccc([N+](=O)[O-])cc1)NC(=O)CN(C)C(=O)[C@@H](N)Cc1ccc(O)cc1)C(=O)N(C)[C@@H](CCCNC(=N)N)C(=O)N[C@H](CCCNC(=N)N)C(N)=O` [SEQ ID NO. 15, NH2-Tyr-Sar-(4-NO2)Phe-Leu-NMA-DArg-NH2] (H-Y[Sar][Phe(4-NO2)]L[NMeR][dR]-NH2), the 50% effective concentration (EC50) in series [3] (setting [5]) came out at 1320 nM.
For “2-NH2-Phe-Phe-Leu-Gly-Arg-Arg (FFLGRR; also: 2-NH2 (N-terminal amino modification) on Phe, placement unclear) [SEQ ID NO. 36, reference compound]”, in series [1], the “cAMP assay KOR 1 μM” value is recorded as “no measurable potency”. In series [3], the “cAMP assay DOR 1 μM” value is listed as “no measurable potency”. In the series with Mu opioid receptor (MOR), the “cAMP assay MOR 1 μM” value is “no measurable potency”.
As for `CC(C)C[C@H](NC(=O)[C@H](Cc1ccc(Cl)cc1)NC(=O)CN(C)C(=O)[C@@H](N)Cc1ccc(O)cc1)C(=O)N(C)[C@@H](CCCNC(=N)N)C(=O)N[C@H](CCCNC(=N)N)C(N)=O` [SEQ ID NO. 13, NH2-Tyr-Sar-(4-Cl)Phe-Leu-NMA-DArg-NH2] (H-Y[Sar][Phe(4-Cl)]L[NMeR][dR]-NH2), the EC50 (in series [3]; on Mu opioid receptor (MOR)) was above 10000 nM throughout. Further, the half-life at 100 µM in series [2] was 4.6 h; in the series “Stability in rat plasma”, 3.99 h.
Turning to `CC(C)C[C@H](NC(=O)[C@H](Cc1ccc(Cl)cc1)NC(=O)CN(C)C(=O)[C@@H](N)Cc1ccc(O)cc1)C(=O)N[C@@H](CCCNC(=N)N)C(=O)N(C)[C@@H](CCCNC(=N)N)C(N)=O` [SEQ ID NO. 17, NH2-Tyr-Sar-(4-Cl)Phe-Leu-Arg-NMA-NH2] (H-Y[Sar][Phe(4-Cl)]LR[NMeR]-NH2), the figures for the half-life at 100 µM (in series [2]; in “Stability in rat plasma”) were above 16.7 h and 2.9 h, respectively.
Consider `CC(C)C[C@H](NC(=O)[C@H](Cc1ccccc1)NC(=O)CN(C)C(=O)[C@@H](N)Cc1ccc(O)cc1)C(=O)N[C@@H](CCCNC(=N)N)C(=O)N[C@H](CCCNC(=N)N)C(N)=O` [SEQ ID NO. 3, NH2-Tyr-Sar-Phe-Leu-Arg-DArg-NH2] (H-Y[Sar]FLR[dR]-NH2), for which, in series [1], the “cAMP assay KOR 1 μM” value is on record as 27.24 and the “cAMP assay KOR 10 μM” value was 43.58. In addition, in series [3], the “cAMP assay DOR 1 μM” value is on record as −2.27 and the “cAMP assay DOR 10 μM” value came out at 2.24. For the same molecule, at Mu opioid receptor (MOR), the “cAMP assay MOR 1 μM” value is reported as −0.68 and the “cAMP assay MOR 10 μM” value worked out at 2.17. The “Half Life Trypsin” value in series [2] came to 0.227 h. In the series “Stability in rat plasma”, this molecule gave a half-life at 100 µM of 1.2 h.
`CC(C)C[C@H](NC(=O)[C@H](Cc1ccccc1)NC(=O)CN(C)C(=O)[C@@H](N)Cc1ccc(O)cc1)C(=O)N[C@H](CCCNC(=N)N)C(=O)N[C@@H](CCCNC(=N)N)C(N)=O` [SEQ ID NO. 6, NH2-Tyr-Sar-Phe-Leu-DArg-Arg-NH2] (H-Y[Sar]FL[dR]R-NH2): in series [1], the “cAMP assay KOR 1 μM” value is reported as 14.22 and the “cAMP assay KOR 10 μM” value came to 35.13. In series [3], the “cAMP assay DOR 1 μM” value is on record as −0.03 and the “cAMP assay DOR 10 μM” value was 2.25. Further, at Mu opioid receptor (MOR), the “cAMP assay MOR 1 μM” value is given as 1.04 and the “cAMP assay MOR 10 μM” value amounted to 7.84. This molecule gave a half-life in series [2] of 21.1 h.
With `CC(C)C[C@H](NC(=O)[C@H](Cc1ccc(Cl)cc1)NC(=O)CN(C)C(=O)[C@@H](N)Cc1ccc(O)cc1)C(=O)N[C@@H](CCCNC(=N)N)C(=O)N[C@H](CCCNC(=N)N)C(=O)NCCCCCCCC(=O)O` [SEQ ID NO. 28, NH2-Tyr-Sar-(4-Cl)Phe-Leu-Arg-DArg-C7H14-COOH] (H-Y[Sar][Phe(4-Cl)]LR[dR][Aoc]-OH), the 50% effective concentration (EC50) (in series [3]; at Mu opioid receptor (MOR)) was above 10000 nM throughout.
Turning to `CC(C)C[C@H](NC(=O)[C@H](Cc1ccc(Cl)cc1)NC(=O)CN(C)C(=O)[C@@H](N)Cc1ccc(O)cc1)C(=O)N[C@@H](CCCNC(=N)N)C(=O)N[C@H](CCCNC(=N)N)C(N)=O` [SEQ ID NO. 11, NH2-Tyr-Sar-(4-Cl)Phe-Leu-Arg-DArg-NH2] (H-Y[Sar][Phe(4-Cl)]LR[dR]-NH2), in series [1], the “cAMP assay KOR 1 μM” value stood at 27.7 and the “cAMP assay KOR 10 μM” value came to 33.99. In addition, in series [3], the “cAMP assay DOR 1 μM” value is reported as −1.18 and the “cAMP assay DOR 10 μM” value is recorded as 4.27. Moreover, at Mu opioid receptor (MOR), the “cAMP assay MOR 1 μM” value is −0.86 and the “cAMP assay MOR 10 μM” value is reported as 1.37. The same molecule gave a half-life at 100 µM in series [2] of 0.257 h.
Regarding `CC(C)C[C@H](NC(=O)[C@H](Cc1ccc(F)cc1)NC(=O)CN(C)C(=O)[C@@H](N)Cc1ccc(O)cc1)C(=O)N(C)[C@@H](CCCNC(=N)N)C(=O)N[C@H](CCCNC(=N)N)C(N)=O` [SEQ ID NO. 14, NH2-Tyr-Sar-(4-F)Phe-Leu-NMA-DArg-NH2] (H-Y[Sar][Phe(4-F)]L[NMeR][dR]-NH2), the concentration for a half-maximal effect (EC50) in series [3] (setting [5]) is 1660 nM; at Mu opioid receptor (MOR) (setting [4]) it was 4000 nM. The results for the half-life at 100 µM (in series [2]; in “Stability in rat plasma”) were 27.1 h and 5.4 h, respectively.
For the molecule `CC[C@H](C)[C@H](NC(=O)[C@@H](CCCNC(=N)N)NC(=O)[C@H](CCCNC(=N)N)NC(=O)[C@H](CC(C)C)NC(=O)[C@H](Cc1ccc(Cl)cc1)NC(=O)CN(C)C(=O)[C@@H](N)Cc1ccc(O)cc1)C(=O)N[C@H](CCCNC(=N)N)C(N)=O` [SEQ ID NO. 25, NH2-Tyr-Sar-(4-Cl)Phe-Leu-Arg-DArg-Ile-DArg-NH2], the results for the EC50 (in series [3]; on Mu opioid receptor (MOR)) were above 10000 nM and 1610 nM, respectively.
With `CC(C)C[C@H](NC(=O)[C@H](Cc1ccc(Cl)cc1)NC(=O)CN(C)C(=O)[C@@H](N)Cc1ccc(O)cc1)C(=O)N[C@@H](CCCCN)C(=O)N[C@H](CCCNC(=N)N)C(N)=O` [SEQ ID NO. 16, NH2-Tyr-Sar-(4-Cl)Phe-Leu-Lys-DArg-NH2] (H-Y[Sar][Phe(4-Cl)]LK[dR]-NH2), in series [2], the “Half Life Trypsin” value was 1.16 h. Moreover, the half-life at 100 µM in “Stability in rat plasma” is 1.17 h.
For `CC(C)C[C@H](NC(=O)[C@H](Cc1ccc([N+](=O)[O-])cc1)NC(=O)CN(C)C(=O)[C@@H](N)Cc1ccc(O)cc1)C(=O)N[C@H](CCCNC(=N)N)C(=O)N[C@@H](CCCNC(=N)N)C(N)=O` [SEQ ID NO. 5, NH2-Tyr-Sar-(4-NO2)Phe-Leu-DArg-Arg-NH2] (H-Y[Sar][Phe(4-NO2)]L[dR]R-NH2), in series [1], the “cAMP assay KOR 1 μM” value is on record as 33.44 and the “cAMP assay KOR 10 μM” value stood at 43.14. Further, in series [3], the “cAMP assay DOR 1 μM” value came out at 0.05 and the “cAMP assay DOR 10 μM” value worked out at 2.02. On Mu opioid receptor (MOR), the “cAMP assay MOR 1 μM” value is reported as −0.05 and the “cAMP assay MOR 10 μM” value stood at 4.32. Further, the “Half Life Trypsin” value in series [2] came out at 54.167 h. Moreover, the half-life in the series “Stability in rat plasma” was 0.478 h.
Take `CC(C)C[C@H](NC(=O)[C@H](Cc1ccccc1)NC(=O)CN(C)C(=O)[C@@H](N)Cc1ccc(O)cc1)C(=O)N[C@H](CCCNC(=N)N)C(=O)N[C@H](CCCNC(=N)N)C(N)=O` [SEQ ID NO. 7, NH2-Tyr-Sar-Phe-Leu-DArg-DArg-NH2] (H-Y[Sar]FL[dR][dR]-NH2): in series [1], the “cAMP assay KOR 1 μM” value is recorded as 18.27 and the “cAMP assay KOR 10 μM” value turned out to be 36.03. Also, in series [3], the “cAMP assay DOR 1 μM” value was −0.68 and the “cAMP assay DOR 10 μM” value came to 2.53. On Mu opioid receptor (MOR), the “cAMP assay MOR 1 μM” value came out at 0.13 and the “cAMP assay MOR 10 μM” value is recorded as 4.19. Moreover, in series [2], the half-life is 9.78 h.
